We go through two compounds from article PMC7237647, “Synthesis, in vitro and in vivo evaluation of ^11C-O-methylated arylpiperazines as potential serotonin 1A (5-HT1A) receptor antagonist radiotracers” (EJNMMI Radiopharmacy and Chemistry, 2020).

One experiment has as its target T1, 5-HT1E (Homo sapiens, UniProt P28566).
T1 construct: NIMH-PDSP
The experiment can be described thus: NIMH-PDSP radioligand binding assay, 5-HT1E. The protocol:
(§1) . Cross selectivity for biogenic amines, neurotransmitter receptors, and transporters were determined by radioligand binding assays through NIMH- PDSP using validated and established protocols ([NIMH-PDSP Assay Protocol Book Version III, March 2018]).

For a further experiment, the target named is T2, 5-HT1D (Homo sapiens, UniProt P28221).
T2 construct: NIMH-PDSP
The experiment can be described thus: NIMH-PDSP radioligand binding assay, 5-HT1D. How it is done: as §1

Another experiment has as its target CB1, CB2. The experiment is described as follows: NIMH-PDSP radioligand binding assay, CB1, CB2.
The target in the next experiment is NMDA. The experiment is described as follows: NIMH-PDSP radioligand binding assay, NMDA.
A further experiment has as its target T3, 5-HT2B (Homo sapiens, UniProt P41595).
T3 construct: NIMH-PDSP
The experiment can be described thus: NIMH-PDSP radioligand binding assay, 5-HT2B. The protocol:
as §1

In another experiment the target is T4, 5-HT6 (Homo sapiens, UniProt P50406).
T4 construct: NIMH-PDSP
The experiment can be described thus: NIMH-PDSP radioligand binding assay, 5-HT6. The protocol: as §1

A further experiment deals with Beta Receptors. The experiment is described as follows: NIMH-PDSP radioligand binding assay, Beta Receptors.
The target in another experiment is H1-H4. The experiment can be described thus: NIMH-PDSP radioligand binding assay, H1-H4.
The next experiment deals with T5, 5-HT3 (Homo sapiens, UniProt P46098).
T5 construct: NIMH-PDSP
T5 sequence (P46098 24-478): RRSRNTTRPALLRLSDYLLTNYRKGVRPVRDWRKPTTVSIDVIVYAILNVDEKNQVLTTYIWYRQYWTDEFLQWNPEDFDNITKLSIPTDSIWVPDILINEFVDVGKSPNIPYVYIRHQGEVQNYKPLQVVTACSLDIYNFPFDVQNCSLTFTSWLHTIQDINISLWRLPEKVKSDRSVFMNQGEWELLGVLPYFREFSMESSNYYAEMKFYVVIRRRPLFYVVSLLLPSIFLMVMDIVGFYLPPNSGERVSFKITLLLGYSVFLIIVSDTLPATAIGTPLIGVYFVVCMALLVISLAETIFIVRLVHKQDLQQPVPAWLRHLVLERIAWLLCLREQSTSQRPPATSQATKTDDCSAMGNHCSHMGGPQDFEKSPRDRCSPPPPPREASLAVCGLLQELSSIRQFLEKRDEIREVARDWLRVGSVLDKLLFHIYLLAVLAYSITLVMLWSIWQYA
The experiment is described as follows: NIMH-PDSP radioligand binding assay, 5-HT3. The protocol:
as §1

Another experiment addresses T6, Alpha2C (Homo sapiens, UniProt P18825).
T6 construct: NIMH-PDSP
The experiment is described as follows: NIMH-PDSP radioligand binding assay, Alpha2C.

The target of another experiment is AMPA. The experiment is described as follows: NIMH-PDSP radioligand binding assay, AMPA.
The target in another experiment is 5-HT1A receptors. Further details: method as in ref Fiorino et al. [2012], Fiorino et al. [2016], Fiorino et al. [2017]. To be noted: previous reports, different binding assay methodology; ref Fiorino et al. [2012], Fiorino et al. [2016], Fiorino et al. [2017]; cited from earlier work.
A further experiment deals with T7, 5-HT2C (Homo sapiens, UniProt P28335).
T7 construct: NIMH-PDSP
T7 sequence (P28335 33-458): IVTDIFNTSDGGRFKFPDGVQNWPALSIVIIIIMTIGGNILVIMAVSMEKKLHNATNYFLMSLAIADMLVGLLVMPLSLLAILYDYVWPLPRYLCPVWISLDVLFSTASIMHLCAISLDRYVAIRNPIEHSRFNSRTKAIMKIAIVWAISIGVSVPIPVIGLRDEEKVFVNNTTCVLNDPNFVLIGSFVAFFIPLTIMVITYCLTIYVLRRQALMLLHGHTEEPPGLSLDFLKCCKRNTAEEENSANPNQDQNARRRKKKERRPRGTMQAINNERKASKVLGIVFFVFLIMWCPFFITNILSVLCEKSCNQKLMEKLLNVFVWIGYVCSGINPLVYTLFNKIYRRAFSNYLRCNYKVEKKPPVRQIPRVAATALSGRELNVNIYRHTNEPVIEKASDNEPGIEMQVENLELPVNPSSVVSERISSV
Further details: method as in ref Fiorino et al. [2012]; Fiorino et al. [2016]; Fiorino et al. [2017]. The conditions noted are these: previous preliminary pharmacological screening; ref Fiorino et al. [2012]; Fiorino et al. [2016]; Fiorino et al. [2017]; cited from earlier work.

A value given as a limit tells only on which side of the number the result lay.

T6 sequence (P18825 whole entry): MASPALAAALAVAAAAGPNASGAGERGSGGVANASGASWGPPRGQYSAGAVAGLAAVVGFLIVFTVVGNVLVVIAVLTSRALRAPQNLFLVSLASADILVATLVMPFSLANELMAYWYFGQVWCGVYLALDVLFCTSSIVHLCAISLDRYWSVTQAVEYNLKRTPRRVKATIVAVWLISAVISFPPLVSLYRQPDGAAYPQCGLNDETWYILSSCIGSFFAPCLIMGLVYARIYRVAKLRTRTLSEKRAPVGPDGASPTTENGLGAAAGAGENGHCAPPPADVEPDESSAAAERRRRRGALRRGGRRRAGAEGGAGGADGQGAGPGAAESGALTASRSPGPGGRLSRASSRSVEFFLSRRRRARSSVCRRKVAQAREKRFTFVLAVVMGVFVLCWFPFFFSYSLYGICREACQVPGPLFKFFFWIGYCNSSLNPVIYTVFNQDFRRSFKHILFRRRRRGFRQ
T2 sequence (P28221 whole entry, species assumed): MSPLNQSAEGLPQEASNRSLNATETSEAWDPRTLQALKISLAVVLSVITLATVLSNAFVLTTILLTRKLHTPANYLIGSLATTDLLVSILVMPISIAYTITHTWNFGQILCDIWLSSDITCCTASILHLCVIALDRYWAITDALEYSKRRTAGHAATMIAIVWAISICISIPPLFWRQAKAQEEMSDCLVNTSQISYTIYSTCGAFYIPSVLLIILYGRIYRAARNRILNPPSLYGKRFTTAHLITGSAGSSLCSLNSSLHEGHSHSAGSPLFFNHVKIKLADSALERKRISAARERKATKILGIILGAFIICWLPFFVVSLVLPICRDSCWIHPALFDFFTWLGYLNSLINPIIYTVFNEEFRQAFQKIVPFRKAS
T1 sequence (P28566 whole entry, species assumed): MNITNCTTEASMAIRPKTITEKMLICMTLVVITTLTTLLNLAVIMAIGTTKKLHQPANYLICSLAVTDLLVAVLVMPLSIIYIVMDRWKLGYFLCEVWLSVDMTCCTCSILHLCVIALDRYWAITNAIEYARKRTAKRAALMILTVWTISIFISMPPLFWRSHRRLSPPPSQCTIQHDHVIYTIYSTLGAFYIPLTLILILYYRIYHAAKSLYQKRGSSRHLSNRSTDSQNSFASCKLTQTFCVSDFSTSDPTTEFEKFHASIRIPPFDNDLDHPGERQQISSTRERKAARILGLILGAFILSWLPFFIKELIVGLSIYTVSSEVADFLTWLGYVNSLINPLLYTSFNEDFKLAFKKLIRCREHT
T4 sequence (P50406 whole entry, species assumed): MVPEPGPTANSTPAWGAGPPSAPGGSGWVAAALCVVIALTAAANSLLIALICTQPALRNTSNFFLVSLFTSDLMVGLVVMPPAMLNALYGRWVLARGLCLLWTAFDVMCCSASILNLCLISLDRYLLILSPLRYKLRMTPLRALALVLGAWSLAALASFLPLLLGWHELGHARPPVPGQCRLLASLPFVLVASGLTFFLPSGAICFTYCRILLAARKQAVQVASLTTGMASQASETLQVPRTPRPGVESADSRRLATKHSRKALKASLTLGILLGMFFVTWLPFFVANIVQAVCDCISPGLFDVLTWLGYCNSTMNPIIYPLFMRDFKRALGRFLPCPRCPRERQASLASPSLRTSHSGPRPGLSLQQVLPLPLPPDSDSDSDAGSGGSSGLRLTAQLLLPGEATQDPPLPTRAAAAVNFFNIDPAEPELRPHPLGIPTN
T3 sequence (P41595 whole entry, species assumed): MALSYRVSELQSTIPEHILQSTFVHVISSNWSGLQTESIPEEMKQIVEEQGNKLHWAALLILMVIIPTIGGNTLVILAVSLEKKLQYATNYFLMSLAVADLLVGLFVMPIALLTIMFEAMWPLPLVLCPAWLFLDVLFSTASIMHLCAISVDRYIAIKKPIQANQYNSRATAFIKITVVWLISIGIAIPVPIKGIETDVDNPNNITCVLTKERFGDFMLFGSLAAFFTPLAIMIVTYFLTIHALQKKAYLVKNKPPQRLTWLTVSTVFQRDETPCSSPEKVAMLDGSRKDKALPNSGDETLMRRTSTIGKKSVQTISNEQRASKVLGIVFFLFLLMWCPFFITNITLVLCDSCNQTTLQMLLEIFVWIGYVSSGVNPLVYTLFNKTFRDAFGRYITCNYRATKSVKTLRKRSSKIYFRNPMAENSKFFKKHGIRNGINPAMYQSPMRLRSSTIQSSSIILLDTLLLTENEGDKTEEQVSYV

Usually Ki stands for the equilibrium dissociation constant of an inhibitor or competing ligand from its target. In the case of `COc1ccccc1N1CCN(CCNC(=O)c2ccccn2)CC1` [Compound 2], the Ki on 5-HT1E is more than 10 µM; on 5-HT1D, more than 10 µM; at CB1, CB2, more than 10 µM; at NMDA, more than 10 µM; at 5-HT2B, 0.516 µM; on 5-HT6, more than 10 µM. Further, the Ki on Beta Receptors, on H1-H4, at 5-HT3, at Alpha2C and on AMPA was more than 10 µM in each case.

On to `COc1ccccc1N1CCN(CCCN/C(=N\C#N)c2ccccn2)CC1` [Compound 1], for which the inhibition constant (Ki) at 5-HT1E was more than 10 µM; on 5-HT1D, more than 10 µM; on CB1, CB2, more than 10 µM; at 5-HT1A receptors, 0.00468 µM; at NMDA, more than 10 µM; at 5-HT2B it was 0.403 µM. In addition, the Ki on 5-HT6 is more than 10 µM; at Beta Receptors, more than 10 µM; on H1-H4 it was more than 10 µM; at 5-HT3, more than 10 µM; on Alpha2C, 0.835 µM; on AMPA, more than 10 µM. For the same compound, the “affinity to 5-HT2C” value at 5-HT2C is “high affinities”.
